Molecular target: human HSV DNA polymerase UL30 (Human herpesvirus 1 (strain 17) (HHV-1) (Human herpes simplex virus 1), UniProt P04293)
Assay: HSV polymerase biochemical assay (molecular beacon-based)
Settings: not given
Description: (§1) Both human CMV DNA polymerase UL54 and human HSV DNA polymerase UL30 were produced as N-terminal MBP fusion of the full length, wild type recombinant proteins in order to enhance soluble expression in insect cell expression system. The proteins were expressed in sf9 insect cells via baculovirus transduction and cells were harvested after 48 hours. The soluble proteins were purified using the standard Ni-IMAC purification strategy via the N-terminal hexa-Histidine tag, followed by heparin affinity chromatography. Both of the final MBP fusion proteins were more than 90% pure and the yield of UL54 was up to 1.8 mg per liter culture while UL30 was up to 15 mg per liter culture. All purification steps were performed on ice, with buffers chilled on ice and FPLC fraction collectors set at 6° C. […] UL30 protein was stored in buffer containing 20 mM HEPES, pH7.0, 420 mM NaCl, 20% glycerol, 6 mM Imidazole, and 0.8 mM DTT at−80° C.
(§2) DNA polymerase activity was measured using a molecular beacon-based assay, as described in Ma et. al.
(§3) 100 pM CMV polymerase or 625 pM HSV polymerase was added to a buffer containing 20 mM Tris, pH=7.5, 100 mM NaCl, 10 mM MgCl2, 0.01% Tween-20, 0.5 mM EDTA, 10% Sucrose and 1 mM DTT. The inhibitor was pre-incubated with the polymerase for 30 minutes at room temperature. Reactions were initiated by the addition of a mixture containing 1.25 uM dATP, 1.25 uM dCTP, 1.25 uM dTTP, 1.25 uM dGTP, 200 nM Primer B (5′-GAC GGG AAG-3′5′-GAC GGG AAG-3′) and 100 nM molecular beacon (5′-5,6-FAM-CCTCTCCGTGTCTTGTACTTCCCGTCAGAGAGG-BHQ1-3′). For human CMV polymerase the reactions were incubated for 60 minutes at room temperature. For HSV polymerase the reactions were incubated for 20 minutes at room temperature. The reactions were then read on a Perkin-Elmer EnVision 2101 reader (fluorescence) using an excitation of 480 nm and emission of 535 nm. 1050s were determined using an internal Novartis software (Helios).
as §3, with “nm.” for “nm. 1050s were determined using an internal Novartis software (Helios).”

| SMILES | IC50 |
| --- | --- |
| CCN1CCn2c(ccc(C(=O)NCc3ccc(Cl)cc3)c2=O)C1=O [Example 113, N-(4-chlorobenzyl)-2-ethyl-1,6-dioxo-2,3,4,6-tetrahydro-1H-pyrido[1,2-a]pyrazine-7-carboxamide] | 23600 nM |
| CN1CCn2c(ccc(C(=O)NCc3ccc(Cl)cc3)c2=O)C1=O [Example 114, N-(4-chlorobenzyl)-2-methyl-1,6-dioxo-2,3,4,6-tetrahydro-1H-pyrido[1,2-a]pyrazine-7-carboxamide] | 25000 nM |

Molecular target: human CMV DNA polymerase UL54 (Human cytomegalovirus (strain AD169) (HHV-5) (Human herpesvirus 5), UniProt P08546)
Assay: CMV polymerase biochemical assay (molecular beacon-based)
Settings: not given
Description: as §1, §2, §3
as §3, with “nm.” for “nm. 1050s were determined using an internal Novartis software (Helios).”

| SMILES | IC50 |
| --- | --- |
| CC(CCO)S(=O)(=O)C1(CN2CCn3c(ccc(C(=O)NCc4ccc(Cl)cc4)c3=O)C2=O)CC1 (stereo not shown) [Example 4, N-(4-chlorobenzyl)-2-((1-((4-hydroxybutan-2-yl)sulfonyl)cyclopropyl)methyl)-1,6-dioxo-2,3,4,6-tetrahydro-1H-pyrido[1,2-a]pyrazine-7-carboxamide] | 0.4 nM |
| CCN1CCn2c(ccc(C(=O)NCc3ccc(Cl)cc3)c2=O)C1=O [Example 113, N-(4-chlorobenzyl)-2-ethyl-1,6-dioxo-2,3,4,6-tetrahydro-1H-pyrido[1,2-a]pyrazine-7-carboxamide] | 3130 nM |
| CN1CCn2c(ccc(C(=O)NCc3ccc(Cl)cc3)c2=O)C1=O [Example 114, N-(4-chlorobenzyl)-2-methyl-1,6-dioxo-2,3,4,6-tetrahydro-1H-pyrido[1,2-a]pyrazine-7-carboxamide] | 3990 nM |
| COC1(S(=O)(=O)C2(CN3CCn4c(ccc(C(=O)NCc5ccc(Cl)cc5)c4=O)C3=O)CC2)CC1 [Example 188] | 0.8 nM |

System: Luciferase-encoding HCMV, AD169 strain
Assay: CMV Luciferase assay (cellular herpesvirus replication)
Assay type: cell-based
Settings: Human betaherpesvirus 5, AD169, read-out: CMV-Luc Cellular EC50
Description: For all viral assays, 10 mM DMSO stock compound solutions were serially diluted in DMSO at 3.16 fold dilutions in 96-well clear round bottom plates. Compounds were then diluted in assay media at 1:20 and subsequently 10 μL of these dilutions were added to cells for final compound concentrations ranging either from 0.0159 μM to 50 μM in 0.5% DMSO/assay media, or from 0.00318 to 10 μM in 0.5% DMSO/assay media.
The assay uses a Luciferase-encoding HCMV. Luciferase is expressed under the control of a late viral gene (pp28) promoter in the AD169 strain, so that expression of the reporter is dependent on viral DNA replication. Compounds that affect any stage from viral entry to DNA replication result in a change in luciferase levels.
Viral replication in the presence or absence of compounds was measured by luciferase activity according to the following procedure: Neo-natal normal human dermal fibroblast cells (NN-NHDF, from ATCC cat #201-010) were seeded at 9,000 cells/well in 96-well white solid bottom plate at 80 uL/well in assay media: 2% FBS, 4 mM GlutaMax® (Invitrogen cat #35050) in DMEM/high glucose/no glutamine/no phenol red media (Invitrogen cat #31053). After 2 hrs at 37° C., 10 uL of compound diluted in assay media or 5% DMSO (final 0.5% DMSO/well) was added and the plates returned to 37° C. One hour later, 10 uL of virus diluted in assay media was added at a final Multiplicity of infection (MOI) of 1. Plates were incubated at 37° C. for 72 hrs. At 72 hours post-infection (hpi), plates were equilibrated to room temperature. After 25 min, 100 uL Renilla-Glo® Luciferase Assay Reagent (Promega cat # E2750) was added to each well and incubated for 10 min. Plates were covered to protect from light. Luminescence was measured on the PHERAstar FS®.
The following controls were included in the data analysis: No virus, no compound (0.5% DMSO)=IC (maximal inhibitory control); Virus, no compound (0.5% DMSO)=NC (neutral control). Data were analyzed using an internal Novartis software (Helios). The means of the controls (NC, IC) were used to normalize the results to a % scale using the formula: % Control=100−(100*(Sample value−NC)/(IC−NC)).
For each compound, the software derived an EC50 using a 4-parameter logistical model.

| SMILES | EC50 |
| --- | --- |
| CC(CCO)S(=O)(=O)C1(CN2CCn3c(ccc(C(=O)NCc4ccc(Cl)cc4)c3=O)C2=O)CC1 (stereo not shown) [Example 4, N-(4-chlorobenzyl)-2-((1-((4-hydroxybutan-2-yl)sulfonyl)cyclopropyl)methyl)-1,6-dioxo-2,3,4,6-tetrahydro-1H-pyrido[1,2-a]pyrazine-7-carboxamide] | 40.4 nM |
| N#Cc1ccc(CNC(=O)c2ccc3n(c2=O)CCN(CC2(S(=O)(=O)CCCO)CC2)C3=O)cc1F [Example 23] | 452 nM |
| CS(=O)(=O)CCN1CCn2c(ccc(C(=O)NCc3ccc(Cl)cc3)c2=O)C1=O [Example 51, N-(4-chlorobenzyl)-2-(2-(methylsulfonyl)ethyl)-1,6-dioxo-2,3,4,6-tetrahydro-1H-pyrido[1,2-a]pyrazine-7-carboxamide] | 1870 nM |
| CN(C)S(=O)(=O)C1(CN2CCn3c(ccc(C(=O)NCc4ccc(C#N)cc4)c3=O)C2=O)CC1 [Example 90-2] | 34 nM |
| N#CCS(=O)(=O)C1(CN2CCn3c(ccc(C(=O)NCc4ccc(Cl)cc4)c3=O)C2=O)CC1 [Example 108-1, N-(4-Chlorobenzyl)-2-((1-((cyanomethyl)sulfonyl)cyclopropyl)methyl)-1,6-dioxo-2,3,4,6-tetrahydro-1H-pyrido[1,2-a]pyrazine-7-carboxamide] | 228 nM |
| CS(=O)(=O)CCCN1CCn2c(c(C3CC3)cc(C(=O)NCc3ccc(Cl)cc3)c2=O)C1=O [Example 130] | 13300 nM |
| O=C(NCc1ccc(Cl)cc1)c1cc(C2CC2)c2n(c1=O)CCN(CCN1CCCS1(=O)=O)C2=O [Example 131] | 949 nM |
| O=C(NCc1ccc(Cl)cc1)c1cc(CC2CC2)c2n(c1=O)CCN(CCN1CCCS1(=O)=O)C2=O [Example 133, N-(4-chlorobenzyl)-9-(cyclopropylmethyl)-2-(2-(1,1-dioxidoisothiazolidin-2-yl)ethyl)-1,6-dioxo-1,3,4,6-tetrahydro-2H-pyrido[1,2-a]pyrazine-7-carboxamide] | 1020 nM |
| CCc1cc(C(=O)NCc2ccc(Cl)cc2)c(=O)n2c1C(=O)N(CCN1CCCS1(=O)=O)CC2 [Example 135] | 749 nM |
| O=C(NCc1ccc(Cl)cc1)c1cc(C(F)F)c2n(c1=O)CCN(CCN1CCCS1(=O)=O)C2=O [Example 144] | 10400 nM |
| CS(=O)(=O)CCCN1CCn2c(c(C(F)(F)F)cc(C(=O)NCc3ccc(Cl)cc3)c2=O)C1=O [Example 146, N-(4-chlorobenzyl)-2-(3-(methylsulfonyl)propyl)-1,6-dioxo-9-(trifluoromethyl)-1,3,4,6-tetrahydro-2H-pyrido[1,2-a]pyrazine-7-carboxamide] | 47200 nM |
| Cc1cc(C(=O)NCc2ccc(Cl)cc2)c(=O)n2c1C(=O)N(CC1(N3CCCS3(=O)=O)CC1)CC2 [Example 150] | 67.7 nM |
| Cc1cc(C(=O)NCc2ccc(Cl)cc2)c(=O)n2c1C(=O)N(CCC1(S(C)(=O)=O)CC1)CC2 [Example 151] | 10000 nM |
| Cc1cc(C(=O)NCc2ccc(Cl)cc2)c(=O)n2c1C(=O)N(CC1(CS(C)(=O)=O)CC1)CC2 [Example 154] | 662 nM |
| CN(CCN1CCn2c(c(F)cc(C(=O)NCc3ccc(Cl)cc3)c2=O)C1=O)S(C)(=O)=O [Example 160, N-(4-chlorobenzyl)-9-fluoro-2-(2-(N-methylmethylsulfonamido)ethyl)-1,6-dioxo-1,3,4,6-tetrahydro-2H-pyrido[1,2-a]pyrazine-7-carboxamide] | 3600 nM |
| CS(=O)(=O)C1(CCN2CCn3c(c(F)cc(C(=O)NCc4ccc(Cl)cc4)c3=O)C2=O)CC1 [Example 165] | 10000 nM |
| CS(=O)(=O)C1(CN2CCn3c(c(F)cc(C(=O)NCc4ccc(Cl)cc4)c3=O)C2=O)CC1 [Example 167] | 57.3 nM |
| CS(=O)(=O)CC1(CN2CCn3c(c(F)cc(C(=O)NCc4ccc(Cl)cc4)c3=O)C2=O)CC1 [Example 168] | 1100 nM |
| CS(=O)(=O)C1(CCN2CCn3c(ccc(C(=O)NCc4ccc(Cl)cc4)c3=O)C2=O)CC1 [Example 170, N-(4-chlorobenzyl)-2-(2-(1-(methylsulfonyl)cyclopropyl)ethyl)-1,6-dioxo-1,3,4,6-tetrahydro-2H-pyrido[1,2-a]pyrazine-7-carboxamide] | 9030 nM |
| COC1(S(=O)(=O)C2(CN3CCn4c(ccc(C(=O)NCc5ccc(Cl)cc5)c4=O)C3=O)CC2)CC1 [Example 188] | 11.6 nM |
| NC1(CN2CCn3c(ccc(C(=O)NCc4ccc(Cl)cc4)c3=O)C2=O)CC1 [Example 197] | 4790 nM |
| CCOC(=O)C1(CN2CCn3c(ccc(C(=O)NCc4ccc(Cl)cc4)c3=O)C2=O)CC1 [Example 207, ethyl 1-((7-((4-chlorobenzyl)carbamoyl)-1,6-dioxo-1,3,4,6-tetrahydro-2H-pyrido[1,2-a]pyrazin-2-yl)methyl)cyclopropane-1-carboxylate] | 3790 nM |
| O=C(NCc1ccc(Cl)cc1)c1ccc2n(c1=O)CCN(CC1(C(=O)N3CCC3)CC1)C2=O [Example 208, 2-((1-(azetidine-1-carbonyl)cyclopropyl)methyl)-N-(4-chlorobenzyl)-1,6-dioxo-1,3,4,6-tetrahydro-2H-pyrido[1,2-a]pyrazine-7-carboxamide] | 5180 nM |
| CN(C)C(=O)C1(CN2CCn3c(ccc(C(=O)NCc4ccc(Cl)cc4)c3=O)C2=O)CC1 [Example 209] | 2490 nM |
| O=C(NCc1ccc(Cl)cc1)c1ccc2n(c1=O)CCN(CC1(C(=O)N3CCOCC3)CC1)C2=O [Example 211] | 7810 nM |
